# Tested on: middle cerebral artery (MCA) occlusion
# Conditions: rat, 2 h MCA occlusion, 24 h reperfusion, 0.03 mg/kg iv bolus at 30 minutes
# Procedure: Six male Sprague Dawley rats (300 g) were anesthetized with haloethane and subjected to middle cerebral artery (MCA) occlusion using a nylon filament for 2 h. Subsequently, the filament was removed and reperfusion of the infarcted tissue occurred for 24 hours before the rat was sacrificed.
# Staining of coronal sections (2.0 mm×7-8) with triphenyltetrazolium chloride ([…]) taken throughout the brain were evaluated under blinded conditions using image analysis to determine infarct size.
# The infarct was also expressed as a percentage of the contralateral (non-infarcted) hemisphere to provide an indication of how much of the ipsilateral (infarcted) hemisphere was actually damaged by the procedure. Because edema is present in the infarcted hemisphere, it is often impossible to directly ascertain the percentage of the ipsilateral hemisphere that has been damaged.
# Rats were given iv bolus injections (1.0 mL/kg) of either vehicle (10% PEG 200/saline; n=3) or N-(2-pyrazine)carbonyl-L-phenylalanine-L-leucine boronic acid (0.03 mg/kg; n=3) at 30 minutes, 2 hours, and 6 hours after the start of the occlusion.
structure (smiles),measurement,setting,value
CC(C)CC(NC(=O)C(Cc1ccccc1)NC(=O)c1cnccn1)B(O)O [N-(2-pyrazine)carbonyl-L-phenylalanine-L-leucine boronic acid],Infarct volume decreased on the ipsilateral hemisphere,"2 hours and 6 hours after start of occlusion, vs vehicle",62%
same,Total damage of the hemisphere (infarct as percentage of contralateral hemisphere),"2 hours and 6 hours, vehicle 19%",2%

# Source: patent US20030069189A1, “Treatment of infarcts” (Millennium Pharmaceuticals, Inc., priority 1997, published 2003)
